Where “and” joins values, the source holds several entries; their conditions need not be identical. Equal values may be shown once. Entries after “also recorded” stand apart in the source; their conditions may differ.
Tested on: lung injury
Experiment: histological evaluation of lung biopsies (four graded scale 0-3)
Type: in vivo, pig
From the text: After euthanasia, the chest was opened and two approximately 2 × 1 × 1 cm pieces of lung tissue was cut from the left lung 3 cm from the hilus. One piece was immediately put in formaldehyde solution for later routine preparation for histological evaluation in hematoxylin and eosin staining. A pathologist, blinded for treatment group, evaluated the severity of lung injury in specimens on a four graded scale: 0 = no lung injury, 1 = mild lung injury, 2 = moderate lung injury and 3 = severe lung injury.

SMILES: CCOCCOCCOCCCCCNC(=O)NC12CC3CC(CC(C3)C1)C2 [Compound 950]
- lungskada (histology score, per case, listed as sEH-i 950): 3 and 2
- Lung injury (histology, grade in words, per case, listed as sEH-i 950): Severe; also recorded: Moderate
- Histological injury score (scale 0-3, AEPU group): 2.7 (2–3)
